Results from patent publication US9346793B2, “Hydroxylated aminotriazole derivatives as ALX receptor agonists” (Actelion Pharmaceuticals, LTD., priority 2010, dated 2016).

The compounds below were run against recombinant human ALX receptor (HEK293-hALXR-Gα16 cells) (Homo sapiens (Human), UniProt P25090) (assay: Intracellular calcium measurements (FLIPR), ALX receptor agonistic activity). Conditions: normalized to 10 nM WKYMVm, read-out: EC50 (agonistic activity with respect to the ALX receptor).
Format: cell-based
Experimental: The ALX receptor agonistic activity of the compounds of formula (I) is determined in accordance with the following experimental method.
Intracellular Calcium Measurements:
Cells expressing recombinant human ALX receptor and the G-protein Gα16 (HEK293-hALXR-Gα16) were grown to 80% confluency in Growing Medium (GM). Cells were detached from culture dishes with a cell dissociation buffer (Invitrogen, 13151-014), and collected by centrifugation at 1,000 rpm at rt for 5 min in Assay Buffer (AB) (equal parts of Hank's BSS (Gibco, 14065-049) and DMEM without Phenol Red (Gibco, 11880-028)). After 60 min incubation at 37° C. under 5% CO2 in AB supplemented with 1 μM Fluo-4 (AM) (Invitrogen, F14202) and 20 mM HEPES (Gibco, 15630-056), the cells were washed and resuspended in AB. They were then seeded onto 384-well FLIPR assay plates (Greiner, 781091) at 50,000 cells in 70 μl per well and sedimented by centrifugation at 1,000 rpm for 1 min. Stock solutions of test compounds were made up at a concentration of 10 mM in DMSO, and serially diluted in AB to concentrations required for activation dose response curves. WKYMVm (Phoenix Peptides) was used as a reference agonist. A FLIPR Tetra instrument (Molecular Devices) was operated according to the manufacturers standard instructions, adding 4 μl of test compound dissolved at 10 mM in DMSO and diluted prior to the experiment in assay buffer to obtain the desired final concentration. Changes in fluorescence were monitored before and after the addition of test compounds at lex=488 nm and lem=540 nm. Emission peak values above base level after compounds addition were exported after base line subtraction. Values were normalized to high-level control (WKYMVm compound, 10 nM final concentration) after subtraction of the base line value (AB addition).

Chain of recombinant human ALX receptor (HEK293-hALXR-Gα16 cells) (P25090 whole entry): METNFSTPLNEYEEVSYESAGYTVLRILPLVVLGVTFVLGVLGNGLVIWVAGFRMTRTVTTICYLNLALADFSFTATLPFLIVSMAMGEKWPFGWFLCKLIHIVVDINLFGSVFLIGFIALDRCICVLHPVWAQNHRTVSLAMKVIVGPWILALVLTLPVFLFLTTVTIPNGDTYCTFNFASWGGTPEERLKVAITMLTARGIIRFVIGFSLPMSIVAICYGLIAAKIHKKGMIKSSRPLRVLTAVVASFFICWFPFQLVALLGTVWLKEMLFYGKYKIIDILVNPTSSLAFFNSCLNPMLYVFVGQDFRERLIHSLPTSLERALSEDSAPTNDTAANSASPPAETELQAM

Compound | EC50 [nM]
COc1cccc(-c2oc(C)nc2C(=O)Nc2cnn(Cc3nc(C(C)(C)O)co3)n2)c1 [Example 6, 5-(3-Methoxy-phenyl)-2-methyl-oxazole-4-carboxylic acid {2-[4-(1-hydroxy-1-methyl-ethyl)-oxazol-2-ylmethyl]-2H-[1,2,3]triazol-4-yl}-amide] | 12.7
Cc1nc(C(=O)Nc2cnn(Cc3nc(C(C)(C)O)co3)n2)c(-c2cccc(C(F)(F)F)c2)o1 [Example 5, 2-Methyl-5-(3-trifluoromethyl-phenyl)-oxazole-4-carboxylic acid {2-[4-(1-hydroxy-1-methyl-ethyl)-oxazol-2-ylmethyl]-2H-[1,2,3]triazol-4-yl}-amide] | 21.7
Cc1cccc(-c2oc(C)nc2C(=O)Nc2cnn(Cc3nc(C4(O)CC4)co3)n2)c1 [Example 2, 2-Methyl-5-m-tolyl-oxazole-4-carboxylic acid {2-[4-(1-hydroxy-cyclopropyl)-oxazol-2-ylmethyl]-2H-[1,2,3]triazol-4-yl}-amide] | 7.6
Cc1cccc(-c2oc(C3CC3)nc2C(=O)Nc2cnn(Cc3nc(C(C)(C)O)co3)n2)c1 [Example 15, 2-Cyclopropyl-5-m-tolyl-oxazole-4-carboxylic acid {2-[4-(1-hydroxy-1-methyl-ethyl)-oxazol-2-ylmethyl]-2H-[1,2,3]triazol-4-yl}-amide] | 52.9
Cc1nc(C(=O)Nc2cnn(Cc3nc(C(C)(C)O)co3)n2)c(-c2cccc(OC(F)(F)F)c2)o1 [Example 12, 2-Methyl-5-(3-trifluoromethoxy-phenyl)-oxazole-4-carboxylic acid {2-[4-(1-hydroxy-1-methyl-ethyl)-oxazol-2-ylmethyl]-2H-[1,2,3]triazol-4-yl}-amide] | 32.3
Cc1cccc(-c2oc(C)nc2C(=O)Nc2cnn(Cc3nc(C(C)(C)O)co3)n2)c1 [Example 1, 2-Methyl-5-m-tolyl-oxazole-4-carboxylic acid {2-[4-(1-hydroxy-1-methyl-ethyl)-oxazol-2-ylmethyl]-2H-[1,2,3]triazol-4-yl}-amide] | 11.8
Cc1cccc(-c2oc(C)nc2C(=O)Nc2cnn(Cc3nc(C(C)(C)O)cs3)n2)c1 [N-(2-((4-(2-Hydroxypropan-2-yl)thiazol-2-yl)methyl)-2H-1,2,3-triazol-4-yl)-2-methyl-5-(m-tolyl)oxazole-4-carboxamide, reference compound] | 245
Cc1nc(C(=O)Nc2cnn(Cc3nc(C(C)(C)O)co3)n2)c(-c2ccccc2)o1 [Example 10, 2-Methyl-5-phenyl-oxazole-4-carboxylic acid {2-[4-(1-hydroxy-1-methyl-ethyl)-oxazol-2-ylmethyl]-2H-[1,2,3]triazol-4-yl}-amide] | 10.3

Further lines, results first:

EC50 [nM] | Compound
13.2 | Cc1nc(C(=O)Nc2cnn(Cc3nc(C(C)(C)O)co3)n2)c(-c2cccc(F)c2)o1 [Example 13, 5-(3-Fluoro-phenyl)-2-methyl-oxazole-4-carboxylic acid {2-[4-(1-hydroxy-1-methyl-ethyl)-oxazol-2-ylmethyl]-2H-[1,2,3]triazol-4-yl}-amide]
82.3 | CC(C)(O)c1coc(Cn2ncc(NC(=O)c3ncsc3-c3cccc(F)c3)n2)n1 [Example 11, 5-(3-Fluoro-phenyl)-thiazole-4-carboxylic acid {2-[4-(1-hydroxy-1-methyl-ethyl)-oxazol-2-ylmethyl]-2H-[1,2,3]triazol-4-yl}-amide]
17.2 | COc1cccc(-c2ocnc2C(=O)Nc2cnn(Cc3nc(C(C)(C)O)co3)n2)c1 [Example 9, 5-(3-Methoxy-phenyl)-oxazole-4-carboxylic acid {2-[4-(1-hydroxy-1-methyl-ethyl)-oxazol-2-ylmethyl]-2H-[1,2,3]triazol-4-yl}-amide]
17.8 | CC(C)(O)c1coc(Cn2ncc(NC(=O)c3ncoc3-c3cccc(Cl)c3)n2)n1 [Example 8, 5-(3-Chloro-phenyl)-oxazole-4-carboxylic acid {2-[4-(1-hydroxy-1-methyl-ethyl)-oxazol-2-ylmethyl]-2H-[1,2,3]triazol-4-yl}-amide]
8 | CC(C)(O)c1coc(Cn2ncc(NC(=O)c3ncoc3-c3ccccc3)n2)n1 [Example 3, 5-Phenyl-oxazole-4-carboxylic acid {2-[4-(1-hydroxy-1-methyl-ethyl)-oxazol-2-ylmethyl]-2H-[1,2,3]triazol-4-yl}-amide]
10.1 | Cc1nc(C(=O)Nc2cnn(Cc3nc(C(C)(C)O)co3)n2)c(-c2cccc(Cl)c2)o1 [Example 7, 5-(3-Chloro-phenyl)-2-methyl-oxazole-4-carboxylic acid {2-[4-(1-hydroxy-1-methyl-ethyl)-oxazol-2-ylmethyl]-2H-[1,2,3]triazol-4-yl}-amide]
51 | CC(C)(O)c1coc(Cn2ncc(NC(=O)c3ncoc3-c3ccc(F)cc3)n2)n1 [Example 4, 5-(4-Fluoro-phenyl)-oxazole-4-carboxylic acid {2-[4-(1-hydroxy-1-methyl-ethyl)-oxazol-2-ylmethyl]-2H-[1,2,3]triazol-4-yl}-amide]
11.3 | Cc1cccc(-c2ocnc2C(=O)Nc2cnn(Cc3nc(C(C)(C)O)co3)n2)c1 [Example 14, 5-m-Tolyl-oxazole-4-carboxylic acid {2-[4-(1-hydroxy-1-methyl-ethyl)-oxazol-2-ylmethyl]-2H-[1,2,3]triazol-4-yl}-amide]
